Common to all, as to assay type: subcellular
In test [1] the target is Core antigen (Hepatitis B virus) (UniProt Q03732). As to the kind of experiment: Inhibition of Hepatitis B virus capsid formation at 10 uM treated during cell-free HBV Cp T33N mutant synthesis using wheat germ lysates and HBV Cp RNA by Denatured capsid assay based western blot analysis. (In general: In western blotting, separated proteins are transferred to a membrane and probed.)

Test [2] deals with Core antigen (Hepatitis B virus, UniProt Q03732). In words: Inhibition of Hepatitis B virus capsid formation treated during cell-free wild type HBV Cp synthesis using wheat germ lysates and HBV Cp RNA by Denatured capsid assay based western blot analysis.
Chain of Core antigen (Q03732 whole entry): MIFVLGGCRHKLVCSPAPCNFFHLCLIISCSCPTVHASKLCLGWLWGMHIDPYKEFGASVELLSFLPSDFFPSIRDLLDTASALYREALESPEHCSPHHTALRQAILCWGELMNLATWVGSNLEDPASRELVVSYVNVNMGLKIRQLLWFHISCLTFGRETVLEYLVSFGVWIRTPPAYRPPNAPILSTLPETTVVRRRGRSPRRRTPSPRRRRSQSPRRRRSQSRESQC
The target in test [3] is Core antigen (Hepatitis B virus) (UniProt Q03732). As to the kind of experiment: Inhibition of Hepatitis B virus capsid formation at 100 uM treated during cell-free wild type HBV Cp synthesis using wheat germ lysates and HBV Cp RNA by Native capsid assay based western blot analysis.
The target is the same in test [4]. As to the kind of experiment: Inhibition of Hepatitis B virus capsid formation at 100 uM treated during cell-free HBV Cp T33N mutant synthesis using wheat germ lysates and HBV Cp RNA by Denatured capsid assay based western blot analysis.

Activity calls are given as the source filed them. Residues, ends and D or L forms follow the SMILES beside them.

Chain of Core antigen (Hepatitis B virus) (Q03732 as listed by the source): as the sequence (Q03732 whole entry) above

As to `CC[C@H](C)[C@H](NC(=O)[C@H](Cc1c[nH]cn1)NC(=O)[C@H](Cc1ccccc1)NC(=O)[C@H](Cc1c[nH]c2ccccc12)NC(=O)[C@H](CC(C)C)NC(=O)[C@H](CC(C)C)NC(=O)[C@H](CCC(N)=O)NC(=O)[C@H](CCCNC(=N)N)NC(=O)[C@H](Cc1ccccc1)NC(=O)[C@H](CCCCN)NC(=O)[C@H](CC(C)C)NC(=O)CNC(=O)[C@H](CCSC)NC(=O)[C@H](CC(N)=O)NC(=O)[C@@H](NC(C)=O)C(C)C)C(N)=O`, the inhibition entry in test [1] is “Active; Same Efficacy As Gls4 Observed”; in test [3] it was “Active; Significantly Inhibited Hbv-Capsid Formation Of 72 Peptides Tested”; in test [4], “Active; Comparable Activity To Gls4, Positive Control”. Moreover, the 50% inhibitory concentration (IC50) – broadly, the midpoint of a concentration-inhibition curve – in test [2] stood at 97.8 µM.
`CC(C)C[C@H](NC(=O)[C@H](Cc1ccc(O)cc1)NC(=O)[C@H](CCC(=O)O)NC(=O)[C@H](CC(C)C)NC(=O)[C@@H](NC(=O)[C@@H](NC(=O)[C@H](CCC(=O)O)NC(=O)[C@H](CCCNC(=N)N)NC(=O)CN)[C@@H](C)O)C(C)C)C(=O)N[C@H](C(=O)N[C@@H](CO)C(=O)N[C@@H](Cc1ccccc1)C(=O)NCC(=O)N[C@H](C(=O)N[C@@H](Cc1c[nH]c2ccccc12)C(N)=O)C(C)C)C(C)C` (H-GRETVLEYLVSFGVW-NH2): the inhibition entry in test [3] was “inactive”.
As to `CC[C@H](C)[C@H](NC(=O)[C@H](C)NC(=O)[C@H](CCC(N)=O)NC(=O)[C@@H]1CCCN1C(=O)[C@H](CC(C)C)NC(=O)[C@H](C)NC(=O)[C@@H](NC(=O)[C@H](Cc1c[nH]cn1)NC(=O)[C@@H](N)Cc1c[nH]cn1)[C@@H](C)O)C(=O)N[C@@H](CC(C)C)C(=O)N[C@@H](CS)C(=O)N[C@@H](Cc1c[nH]c2ccccc12)C(=O)NCC(=O)N[C@@H](CCC(=O)O)C(=O)N[C@@H](CC(C)C)C(N)=O` (H-HHTALPQAILCWGEL-NH2), the inhibition entry in test [3] was “inactive”.
The same measure, in the same setting: as for `CC[C@H](C)[C@H](N)C(=O)N[C@@H](CCCNC(=N)N)C(=O)N[C@H](C(=O)N1CCC[C@H]1C(=O)N1CCC[C@H]1C(=O)N[C@@H](C)C(=O)N[C@@H](Cc1ccc(O)cc1)C(=O)N[C@@H](CCCNC(=N)N)C(=O)N1CCC[C@H]1C(=O)N1CCC[C@H]1C(=O)N[C@@H](CC(N)=O)C(=O)N[C@@H](C)C(=O)N1CCC[C@H]1C(=O)N[C@H](C(=O)N[C@@H](CC(C)C)C(N)=O)[C@@H](C)CC)[C@@H](C)O` (H-IRTPPAYRPPNAPIL-NH2), the entry is “inactive”; as for `CC[C@H](C)[C@H](NC(=O)[C@H](Cc1c[nH]cn1)NC(=O)[C@H](Cc1ccccc1)NC(=O)[C@H](Cc1c[nH]c2ccccc12)NC(=O)[C@H](CC(C)C)NC(=O)[C@H](CC(C)C)NC(=O)[C@H](CCC(N)=O)NC(=O)[C@H](CCCNC(=N)N)NC(=O)[C@H](Cc1ccccc1)NC(=O)[C@@H](N)CCCCN)C(=O)N[C@@H](CO)C(=O)N[C@@H](CS)C(=O)N[C@@H](CC(C)C)C(=O)N[C@H](C(=O)N[C@@H](Cc1ccccc1)C(N)=O)[C@@H](C)O` (H-KFRQLLWFHISCLTF-NH2), “inactive”; as for `CC(C)C[C@H](NC(=O)[C@H](C)NC(=O)[C@H](CO)NC(=O)[C@H](C)NC(=O)[C@@H](NC(=O)[C@H](CC(=O)O)NC(=O)[C@@H](N)CC(C)C)[C@@H](C)O)C(=O)N[C@@H](Cc1ccc(O)cc1)C(=O)N[C@@H](CCCNC(=N)N)C(=O)N[C@@H](CCC(=O)O)C(=O)N[C@@H](C)C(=O)N[C@@H](CC(C)C)C(=O)N[C@@H](CCC(=O)O)C(=O)N[C@@H](CO)C(=O)N1CCC[C@H]1C(N)=O` (H-LDTASALYREALESP-NH2), “inactive”.
Turning to `CC[C@H](C)[C@H](NC(=O)[C@H](Cc1c[nH]c2ccccc12)NC(=O)[C@@H](NC(=O)CNC(=O)[C@H](Cc1ccccc1)NC(=O)[C@H](CO)NC(=O)[C@@H](NC(=O)[C@H](CC(C)C)NC(=O)[C@H](Cc1ccc(O)cc1)NC(=O)[C@H](CCC(=O)O)NC(=O)[C@@H](N)CC(C)C)C(C)C)C(C)C)C(=O)N[C@@H](CCCNC(=N)N)C(=O)N[C@H](C(=O)N1CCC[C@H]1C(=O)N1CCC[C@H]1C(N)=O)[C@@H](C)O` (H-LEYLVSFGVWIRTPP-NH2), the inhibition result in test [3] is “inactive”.
The same measure, in the same setting: to `CC[C@H](C)[C@H](NC(=O)[C@H](Cc1c[nH]cn1)NC(=O)[C@H](Cc1ccccc1)NC(=O)[C@H](Cc1c[nH]c2ccccc12)NC(=O)[C@@H](N)CC(C)C)C(=O)N[C@@H](CO)C(=O)N[C@@H](CS)C(=O)N[C@@H](CC(C)C)C(=O)N[C@H](C(=O)N[C@@H](Cc1ccccc1)C(=O)NCC(=O)N[C@@H](CCCNC(=N)N)C(=O)N[C@@H](CCC(=O)O)C(=O)N[C@H](C(=O)N[C@H](C(N)=O)C(C)C)[C@@H](C)O)[C@@H](C)O` (H-LWFHISCLTFGRETV-NH2) belongs “inactive”; to `N=C(N)NCCC[C@H](NC(=O)[C@@H]1CCCN1)C(=O)N[C@@H](CCCNC(=N)N)C(=O)N[C@@H](CCCNC(=N)N)C(=O)N[C@@H](CCCNC(=N)N)C(=O)N[C@@H](CO)C(=O)N[C@@H](CCC(N)=O)C(=O)N[C@@H](CO)C(=O)N[C@@H](CCCNC(=N)N)C(=O)N[C@@H](CCC(=O)O)C(=O)N[C@@H](CO)C(=O)N[C@@H](CCC(N)=O)C(=O)N[C@@H](CS)C(N)=O` (H-PRRRRSQSRESQC-NH2), “inactive”; to `C[C@@H](O)[C@H](NC(=O)[C@H](CCCNC(=N)N)NC(=O)[C@H](CCCNC(=N)N)NC(=O)[C@H](CCCNC(=N)N)NC(=O)[C@@H]1CCCN1)C(=O)N1CCC[C@H]1C(=O)N[C@@H](CO)C(=O)N1CCC[C@H]1C(=O)N[C@@H](CCCNC(=N)N)C(=O)N[C@@H](CCCNC(=N)N)C(=O)N[C@@H](CCCNC(=N)N)C(=O)N[C@@H](CCCNC(=N)N)C(=O)N[C@@H](CO)C(=O)N[C@@H](CCC(N)=O)C(=O)N[C@@H](CO)C(N)=O` (H-PRRRTPSPRRRRSQS-NH2), “inactive”.
In the case of `N=C(N)NCCC[C@H](NC(=O)[C@H](CCCNC(=N)N)NC(=O)[C@H](CCCNC(=N)N)NC(=O)[C@H](CCCNC(=N)N)NC(=O)[C@@H]1CCCN1C(=O)[C@H](CO)NC(=O)[C@H](CCC(N)=O)NC(=O)[C@H](CO)NC(=O)[C@H](CCCNC(=N)N)NC(=O)[C@H](CCCNC(=N)N)NC(=O)[C@H](CCCNC(=N)N)NC(=O)[C@H](CCCNC(=N)N)NC(=O)[C@@H]1CCCN1C(=O)[C@H](CO)NC(=O)[C@@H]1CCCN1)C(N)=O` (H-PSPRRRRSQSPRRRR-NH2), the inhibition result in test [3] was “inactive”.
In the case of `N=C(N)NCCC[C@H](NC(=O)[C@H](CO)NC(=O)[C@H](CCC(N)=O)NC(=O)[C@H](CO)NC(=O)[C@H](CCCNC(=N)N)NC(=O)[C@H](CCCNC(=N)N)NC(=O)[C@H](CCCNC(=N)N)NC(=O)[C@H](CCCNC(=N)N)NC(=O)[C@@H]1CCCN1C(=O)[C@H](CO)NC(=O)[C@@H](N)CCC(N)=O)C(=O)N[C@@H](CCC(=O)O)C(=O)N[C@@H](CO)C(=O)N[C@@H](CCC(N)=O)C(=O)N[C@@H](CS)C(N)=O` (H-QSPRRRRSQSRESQC-NH2), in test [3], the inhibition entry is “inactive”.
For the molecule `C[C@@H](O)[C@H](NC(=O)[C@H](CCCNC(=N)N)NC(=O)[C@H](CCCNC(=N)N)NC(=O)[C@H](CCCNC(=N)N)NC(=O)[C@@H]1CCCN1C(=O)[C@H](CO)NC(=O)[C@H](CCCNC(=N)N)NC(=O)CNC(=O)[C@H](CCCNC(=N)N)NC(=O)[C@@H](N)CCCNC(=N)N)C(=O)N1CCC[C@H]1C(=O)N[C@@H](CO)C(=O)N1CCC[C@H]1C(=O)N[C@@H](CCCNC(=N)N)C(=O)N[C@@H](CCCNC(=N)N)C(N)=O` (H-RRGRSPRRRTPSPRR-NH2), the inhibition result in test [3] is “inactive”.
The same measure, in the same setting: to `N=C(N)NCCC[C@H](NC(=O)[C@H](CO)NC(=O)[C@H](CCC(N)=O)NC(=O)[C@H](CO)NC(=O)[C@H](CCCNC(=N)N)NC(=O)[C@H](CCCNC(=N)N)NC(=O)[C@H](CCCNC(=N)N)NC(=O)[C@H](CCCNC(=N)N)NC(=O)[C@@H]1CCCN1C(=O)[C@H](CO)NC(=O)[C@H](CCC(N)=O)NC(=O)[C@H](CO)NC(=O)[C@H](CCCNC(=N)N)NC(=O)[C@@H](N)CCCNC(=N)N)C(=O)N[C@@H](CCC(=O)O)C(N)=O` (H-RRSQSPRRRRSQSRE-NH2) belongs “inactive”; to `CC(C)C[C@H](NC(=O)[C@H](Cc1ccc(O)cc1)NC(=O)[C@H](CCC(=O)O)NC(=O)[C@H](CC(C)C)NC(=O)[C@@H](NC(=O)[C@@H](NC(=O)[C@H](CCC(=O)O)NC(=O)[C@H](CCCNC(=N)N)NC(=O)CNC(=O)[C@H](Cc1ccccc1)NC(=O)[C@@H](NC(=O)[C@H](CC(C)C)NC(=O)[C@H](CS)NC(=O)[C@@H](N)CO)[C@@H](C)O)[C@@H](C)O)C(C)C)C(=O)N[C@H](C(N)=O)C(C)C` (H-SCLTFGRETVLEYLV-NH2), “inactive”; to `CC(C)[C@H](NC(=O)[C@@H](NC(=O)[C@@H](NC(=O)[C@@H](N)[C@@H](C)O)[C@@H](C)O)C(C)C)C(=O)N[C@@H](CCCNC(=N)N)C(=O)N[C@@H](CCCNC(=N)N)C(=O)N[C@@H](CCCNC(=N)N)C(=O)NCC(=O)N[C@@H](CCCNC(=N)N)C(=O)N[C@@H](CO)C(=O)N1CCC[C@H]1C(=O)N[C@@H](CCCNC(=N)N)C(=O)N[C@@H](CCCNC(=N)N)C(=O)N[C@@H](CCCNC(=N)N)C(=O)N[C@H](C(N)=O)[C@@H](C)O` (H-TTVVRRRGRSPRRRT-NH2), “inactive”.
Take `CSCC[C@H](NC(=O)[C@H](CC(N)=O)NC(=O)[C@@H](NC(=O)[C@H](CC(N)=O)NC(=O)[C@@H](NC(=O)[C@H](Cc1ccc(O)cc1)NC(=O)[C@H](CO)NC(=O)[C@@H](N)C(C)C)C(C)C)C(C)C)C(=O)NCC(=O)N[C@@H](CC(C)C)C(=O)N[C@@H](CCCCN)C(=O)N[C@@H](Cc1ccccc1)C(=O)N[C@@H](CCCNC(=N)N)C(=O)N[C@@H](CCC(N)=O)C(=O)N[C@@H](CC(C)C)C(N)=O` (H-VSYVNVNMGLKFRQL-NH2): in test [3], the inhibition entry was “inactive”.

Source of the values: ChEMBL document CHEMBL6103552, “Identification of peptide-based hepatitis B virus capsid inhibitors based on the viral core protein” (Bioorg Med Chem Lett, 2025).
